From patent publication US10941137B2, “Difluoromethyl-phenyl triazoles” (Boehringer Ingelheim International GmbH, priority 2018, dated 2021)

What was measured:
[1] = molecular target: T1, human GABAA α5β3γ2s receptor (Homo sapiens, UniProt P18507+P31644); assay: Assay A: in vitro inhibition of 3H-flumazenil binding, HEK cells expressing human GABAA α5β3γ2s receptor; details: 3H-flumazenil 1 nM, HEK-293 membranes, 40 min at 2° C.; Ki from IC50 by Cheng and Prusoff
T1 sequence (P18507 1-475): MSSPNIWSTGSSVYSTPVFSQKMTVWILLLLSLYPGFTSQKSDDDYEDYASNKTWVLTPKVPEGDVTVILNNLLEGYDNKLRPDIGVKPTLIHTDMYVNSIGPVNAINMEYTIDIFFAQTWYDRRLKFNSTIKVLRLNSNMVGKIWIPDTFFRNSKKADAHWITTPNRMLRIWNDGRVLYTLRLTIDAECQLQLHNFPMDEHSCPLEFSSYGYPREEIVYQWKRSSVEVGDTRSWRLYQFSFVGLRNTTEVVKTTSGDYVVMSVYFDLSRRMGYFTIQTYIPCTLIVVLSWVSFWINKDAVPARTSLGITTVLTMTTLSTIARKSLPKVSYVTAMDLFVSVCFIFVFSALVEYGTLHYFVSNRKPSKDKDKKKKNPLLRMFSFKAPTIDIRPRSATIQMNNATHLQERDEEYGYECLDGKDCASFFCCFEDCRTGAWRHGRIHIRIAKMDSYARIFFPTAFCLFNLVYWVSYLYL
T1 sequence (P31644 1-462): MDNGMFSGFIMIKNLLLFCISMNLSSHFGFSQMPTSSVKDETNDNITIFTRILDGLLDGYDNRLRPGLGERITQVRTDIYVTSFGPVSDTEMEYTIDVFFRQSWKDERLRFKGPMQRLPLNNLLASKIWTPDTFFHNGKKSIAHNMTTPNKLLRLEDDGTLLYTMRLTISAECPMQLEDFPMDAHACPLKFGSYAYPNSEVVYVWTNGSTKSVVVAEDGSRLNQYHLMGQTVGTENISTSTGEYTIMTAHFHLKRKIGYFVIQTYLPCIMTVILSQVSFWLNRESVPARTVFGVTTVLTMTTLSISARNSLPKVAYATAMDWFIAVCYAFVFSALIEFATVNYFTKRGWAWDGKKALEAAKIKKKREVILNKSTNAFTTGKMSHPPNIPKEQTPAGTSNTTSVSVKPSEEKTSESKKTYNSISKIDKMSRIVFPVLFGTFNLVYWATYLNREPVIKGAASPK
Protocol: HEK-293 cell lines with stable expression of recombinant human GABAA α5β3γ2s receptors (plasmid H46/E9/B10) are seeded in T175 polystyrene flasks or roller bottles (1700 cm^2, Fisher Scientific CCI-431191), and cultured (37 C, 5% CO˜) in Dulbecco's Modified Eagle Medium (DMEM) with GlutaMAX™ supplemented with 10% fetal bovine serum and one or both of the following antibiotics: hygromycin B ([…]; γ2 subunit) or G418 (0.5 mg/ml; […]).
When the cultures reach confluency, the DMEM is removed and the cells are washed (10 ml for T175 flasks; 50 ml for roller bottles) once in Dulbecco's Phosphate Buffered Saline (DPBS). Following addition of DPBS to the cultures (10 ml for T175 flasks; 100 ml for roller bottles) for approximately 5 min cells are easily detached from the surface by shaking or tapping the flask gently. The cell suspension is transferred to Falcon tubes and centrifuged at 23,500×g for 10 min at 2° C. The pellet is washed once in 15 ml Tris-citrate buffer (50 mM, pH 7.1) using an Ultra-Turrax homogenizer and centrifuged at 2° C. for 10 min at 27,000×g. The washed pellet is re-suspended in 15 ml Tris-citrate buffer and frozen at −80° C. until the day of the binding experiment.
On the day of the experiment the cell membrane preparation is thawed and centrifuged at 2° C. for 10 min at 27,000×g. The pellet is re-suspended, using an Ultra-Turrax homogenizer in Tris-citrate buffer, to 15-50 µg protein per assay and then used for binding assays.
Non-specific binding is determined using clonazepam (1 μM, final concentration).
All dilutions of test compounds and incubation of assay are performed in glass vials/96-vial plates. […] Compounds are dissolved in 100% DMSO (10 mM stock), diluted in 48% ethanol-water, and tested in triplicate in serial 1:3 or 1:10 dilutions. When screening large numbers of compounds only one concentration of each compound is tested in single wells. Reference compounds are not included routinely, but for each experiment performed total and nonspecific binding is compared to data obtained during validation of the assay.
Binding is either terminated by rapid filtration onto
1) Whatman GF/C glass fibre filters using a Brandel Cell harvester, followed by 5 washes with 1 ml ice-cold buffer or onto 2) UniFilter GF/C glass fibre filter plates using a Tomtec cell harvester, followed by washing with approximately 5 ml ice-cold buffer.
The amount of radioactivity on the filters is determined by conventional liquid scintillation counting using a
1) Tri-Garb™ counter (PerkinElmer Life and Analytical Sciences) for separate large filters or
2) Topcount™ counter (PerkinElmer Life and Analytical Sciences) for 96-well filter plates. Specific binding is total binding minus non-specific binding.
For screening purposes n is set to 1. The IC50 value is calculated from the concentration response curves by the non-linear regression method using the curve-fitting program GraphPad Prism. […]

[2] = Metabolic stability in human liver microsomes (Human MST); format: in vitro ADME; details: pooled human liver microsomes, pH 7.6; human liver microsomes 1 mg/mL, 1 μM compound, NADPH 1 mM, 37° C.; read-out: Human MST t1/2
Protocol: Assessment of Metabolic Stability in Human Liver Microsomes (Human MST) The metabolic stability of the compounds according to the invention may be investigated as follows: The metabolic degradation of the test compound is assayed at 37° C. with pooled human liver microsomes. The final incubation volume of 100 μL per time point contains TRIS buffer pH 7.6 at room temperature (0.1 M), MgCl2 (5 mM), microsomal protein (1 mg/mL) and the test compound at a final concentration of 1 μM. Following a short pre-incubation period at 37° C., the reactions are initiated by addition of beta-nicotinamide adenine dinucleotide phosphate, reduced form (NADPH, 1 mM), and terminated by transferring an aliquot into solvent after different time points. After centrifugation (10000 g, 5 min), an aliquot of the supernatant is assayed by LCMS/MS for the amount of parent compound. The half-life (t½) is determined by the slope of the semi-logarithmic plot of the concentration-time profile.

Ki [1] [nM] | half-life at 1 μM [2] [min] | Structure (SMILES)
0.086 | > 130 | Cc1nnn(-c2ccc(C(F)F)cc2)c1COc1ccc(-c2ccnc(O)c2)nn1 [Example 2, 4-[6-({1-[4-(difluoromethyl)phenyl]-4-methyl-1H-1,2,3-triazol-5-yl}methoxy)pyridazin-3-yl]pyridin-2-ol]
0.047 | 37 | Cc1nnn(-c2ccc(C(F)F)cc2)c1COc1ccc(-n2ccc(C(N)=O)n2)nn1 [Example 21]
